Experimental data taken from ChEMBL document CHEMBL4390667, “Novel tacrine-tryptophan hybrids: Multi-target directed ligands as potential treatment for Alzheimer's disease” (Eur J Med Chem, 2019).
Activity calls are given as the source filed them. The calls are words filed in the database; no cut-off is given here.

Assays:
Rattus norvegicus [1] = assay: Antialzhemeric activity in Wistar rat model of scopolamine-induced cognition deficit assessed as effect on time in target sector at 10 nM, icv dosed 60 mins prior to training trial by Morris water maze test; assay type: functional, organism-based
[2] = Toxicity in Wistar rat assessed as induction of partial piloerection at 70 mg/kg, ip measured during first 2 hrs then periodically for 48 hrs; assay type: organism-based; conditions: in vivo
Rattus norvegicus [3] = assay: Antialzhemeric activity in Wistar rat model of scopolamine-induced cognition deficit assessed as effect on escape latency at 100 nM, icv dosed 60 mins prior to training trial by Morris water maze test; assay type: functional, organism-based
Rattus norvegicus [4] = assay: Antialzhemeric activity in Wistar rat model of scopolamine-induced cognition deficit assessed as effect on escape latency at 10 nM, icv dosed 60 mins prior to training trial by Morris water maze test; assay type: functional, organism-based
[5] = Toxicity in Wistar rat assessed as effect on distance moved at 100 nM, icv by Morris water maze assay; conditions: in vivo, icv_or_intrathecal, 0.1 µM
[6] = Toxicity in Wistar rat assessed as change in body weight weight at 70 mg/kg, ip after 24 and 48 hrs; assay type: organism-based; conditions: in vivo
Rattus norvegicus [7] = assay: Antialzhemeric activity in icv dosed Wistar rat model of scopolamine-induced cognition deficit assessed as effect on distance moved dosed 60 mins prior to training trial by Morris water maze test; assay type: functional, organism-based
[8] = Toxicity in Wistar rat assessed as effect on average distance from platform at 100 nM, icv by Morris water maze assay; conditions: in vivo, icv_or_intrathecal, 0.1 µM
[9] = Toxicity in Wistar rat assessed as effect on time spent in the target sector at 100 nM, icv by Morris water maze assay; conditions: in vivo, icv_or_intrathecal, 0.1 µM
Acetylcholinesterase [10] = target: Acetylcholinesterase (Electrophorus electricus, UniProt O42275); assay: Displacement of propidium iodide from peripheral binding site of electric eel AChE assessed as dissociation constant at 8 to 56 uM by spectrofluorometry based Taylor and Lappi method
Acetylcholinesterase (Electrophorus electricus, UniProt O42275), sequence (O42275 whole entry): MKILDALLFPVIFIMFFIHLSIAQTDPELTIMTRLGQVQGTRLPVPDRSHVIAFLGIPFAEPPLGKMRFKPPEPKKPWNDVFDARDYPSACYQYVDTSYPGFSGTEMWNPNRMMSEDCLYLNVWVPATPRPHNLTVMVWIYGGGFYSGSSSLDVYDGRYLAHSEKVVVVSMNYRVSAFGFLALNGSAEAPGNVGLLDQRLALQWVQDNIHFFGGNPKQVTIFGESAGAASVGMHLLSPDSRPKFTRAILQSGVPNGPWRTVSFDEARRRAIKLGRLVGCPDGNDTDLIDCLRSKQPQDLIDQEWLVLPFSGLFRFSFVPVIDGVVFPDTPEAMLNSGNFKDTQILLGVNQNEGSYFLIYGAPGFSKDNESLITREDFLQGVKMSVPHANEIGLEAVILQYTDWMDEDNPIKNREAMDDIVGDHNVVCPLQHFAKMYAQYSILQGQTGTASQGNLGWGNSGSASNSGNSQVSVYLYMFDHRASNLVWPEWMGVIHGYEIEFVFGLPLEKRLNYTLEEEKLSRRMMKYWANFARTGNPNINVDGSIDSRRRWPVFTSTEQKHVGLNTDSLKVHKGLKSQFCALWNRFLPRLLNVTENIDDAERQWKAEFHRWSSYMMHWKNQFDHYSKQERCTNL

[11] = Toxicity in Wistar rat assessed as induction of tremors at 100 nM, icv by Morris water maze assay; conditions: in vivo, icv_or_intrathecal, 0.1 µM
Rattus norvegicus [12] = assay: Antialzhemeric activity in icv dosed Wistar rat model of scopolamine-induced cognition deficit assessed as effect on escape latency dosed 60 mins prior to training trial by Morris water maze test; assay type: functional, organism-based
Cholinesterase = Cholinesterase (Homo sapiens, UniProt P06276)
Cholinesterase, sequence (P06276 whole entry): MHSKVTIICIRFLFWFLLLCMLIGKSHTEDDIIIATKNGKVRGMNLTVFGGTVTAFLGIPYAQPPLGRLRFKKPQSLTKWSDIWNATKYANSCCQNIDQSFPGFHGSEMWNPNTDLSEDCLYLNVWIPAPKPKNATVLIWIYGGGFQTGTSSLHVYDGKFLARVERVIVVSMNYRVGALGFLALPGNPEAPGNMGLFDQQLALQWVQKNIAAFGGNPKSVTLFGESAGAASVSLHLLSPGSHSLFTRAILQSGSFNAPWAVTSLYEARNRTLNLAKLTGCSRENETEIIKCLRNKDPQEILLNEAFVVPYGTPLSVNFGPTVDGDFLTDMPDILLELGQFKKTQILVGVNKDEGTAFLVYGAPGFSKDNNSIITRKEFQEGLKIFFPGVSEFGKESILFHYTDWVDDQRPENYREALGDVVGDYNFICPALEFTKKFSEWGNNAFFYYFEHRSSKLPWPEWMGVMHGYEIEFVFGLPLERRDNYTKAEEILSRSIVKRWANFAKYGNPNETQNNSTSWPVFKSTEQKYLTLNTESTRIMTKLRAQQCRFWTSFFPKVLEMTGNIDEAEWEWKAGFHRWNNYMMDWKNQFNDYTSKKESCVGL
Description: Inhibition of human recombinant BChE using butyrylthiocholine iodide as substrate preincubated for 5 mins followed by substrate addition and measured over 2 mins by UV-Vis spectrophotometric analysis based Ellman's method

Acetylcholinesterase [13] = target: Acetylcholinesterase (Homo sapiens, UniProt P22303)
Acetylcholinesterase (Homo sapiens, UniProt P22303), sequence (P22303 whole entry): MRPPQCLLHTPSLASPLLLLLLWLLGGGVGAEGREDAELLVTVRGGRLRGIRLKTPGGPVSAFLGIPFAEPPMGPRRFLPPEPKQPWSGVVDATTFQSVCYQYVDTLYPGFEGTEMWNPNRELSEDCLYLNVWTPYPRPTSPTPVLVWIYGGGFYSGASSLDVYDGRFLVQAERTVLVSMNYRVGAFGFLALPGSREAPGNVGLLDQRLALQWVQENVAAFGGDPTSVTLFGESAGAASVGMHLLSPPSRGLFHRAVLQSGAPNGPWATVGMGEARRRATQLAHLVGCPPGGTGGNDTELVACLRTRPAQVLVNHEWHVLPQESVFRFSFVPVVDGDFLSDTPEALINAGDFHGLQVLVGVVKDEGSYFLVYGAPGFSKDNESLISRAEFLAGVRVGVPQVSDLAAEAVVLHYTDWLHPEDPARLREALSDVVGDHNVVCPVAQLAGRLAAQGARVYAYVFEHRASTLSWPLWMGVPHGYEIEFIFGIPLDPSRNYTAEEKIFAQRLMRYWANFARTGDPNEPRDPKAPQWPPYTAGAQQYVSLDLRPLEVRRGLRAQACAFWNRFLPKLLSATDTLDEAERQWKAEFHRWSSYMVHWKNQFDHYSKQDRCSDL
Description: Inhibition of human recombinant AChE using acetylthiocholine iodide as substrate preincubated for 5 mins followed by substrate addition and measured over 2 mins by UV-Vis spectrophotometric analysis based Ellman's method

Rattus norvegicus [14] = assay: Antialzhemeric activity in Wistar rat model of scopolamine-induced cognition deficit assessed as effect on distance moved at 100 nM, icv dosed 60 mins prior to training trial by Morris water maze test; assay type: functional, organism-based
Rattus norvegicus [15] = assay: Antialzhemeric activity in Wistar rat model of scopolamine-induced cognition deficit assessed as effect on average distance from platform at 10 nM, icv dosed 60 mins prior to training trial by Morris water maze test; assay type: functional, organism-based
[16] = Toxicity in Wistar rat assessed as induction of diminishing spontaneously and prostration at 70 mg/kg, ip measured during first 2 hrs; assay type: organism-based; conditions: in vivo
[17] = Toxicity in Wistar rat assessed as induction of persistent oculonasal discharge at 70 mg/kg, ip measured during first 2 hrs then periodically for 48 hrs; assay type: organism-based; conditions: in vivo
Rattus norvegicus [18] = assay: Antialzhemeric activity in Wistar rat model of scopolamine-induced cognition deficit assessed as effect on time in target sector at 100 nM, icv dosed 60 mins prior to training trial by Morris water maze test; assay type: functional, organism-based
[19] = Toxicity in Wistar rat assessed as induction of salivation at 100 nM, icv by Morris water maze assay; conditions: in vivo, icv_or_intrathecal, 0.1 µM
CHO-K1 = assay: cells; conditions: Cricetulus griseus, CHO-K1, 24 h
Description: Cytotoxicity against CHOK1 cells assessed as reduction in cell viability incubated for 24 hrs by MTT assay

HepG2 = assay: cells; conditions: Homo sapiens, HepG2, 24 h
Description: Cytotoxicity against human HepG2 cells assessed as reduction in cell viability incubated for 24 hrs by MTT assay

Rattus norvegicus [20] = assay: Antialzhemeric activity in Wistar rat model of scopolamine-induced cognition deficit assessed as effect on distance moved at 10 nM, icv dosed 60 mins prior to training trial by Morris water maze test; assay type: functional, organism-based
[21] = Toxicity in Wistar rat assessed as effect on escape latency at 100 nM, icv by Morris water maze assay; conditions: in vivo, icv_or_intrathecal, 0.1 µM
Nitric oxide synthase 1 = Nitric oxide synthase 1 (Rattus norvegicus, UniProt P29476)
Nitric oxide synthase 1, sequence (P29476 whole entry, looked up): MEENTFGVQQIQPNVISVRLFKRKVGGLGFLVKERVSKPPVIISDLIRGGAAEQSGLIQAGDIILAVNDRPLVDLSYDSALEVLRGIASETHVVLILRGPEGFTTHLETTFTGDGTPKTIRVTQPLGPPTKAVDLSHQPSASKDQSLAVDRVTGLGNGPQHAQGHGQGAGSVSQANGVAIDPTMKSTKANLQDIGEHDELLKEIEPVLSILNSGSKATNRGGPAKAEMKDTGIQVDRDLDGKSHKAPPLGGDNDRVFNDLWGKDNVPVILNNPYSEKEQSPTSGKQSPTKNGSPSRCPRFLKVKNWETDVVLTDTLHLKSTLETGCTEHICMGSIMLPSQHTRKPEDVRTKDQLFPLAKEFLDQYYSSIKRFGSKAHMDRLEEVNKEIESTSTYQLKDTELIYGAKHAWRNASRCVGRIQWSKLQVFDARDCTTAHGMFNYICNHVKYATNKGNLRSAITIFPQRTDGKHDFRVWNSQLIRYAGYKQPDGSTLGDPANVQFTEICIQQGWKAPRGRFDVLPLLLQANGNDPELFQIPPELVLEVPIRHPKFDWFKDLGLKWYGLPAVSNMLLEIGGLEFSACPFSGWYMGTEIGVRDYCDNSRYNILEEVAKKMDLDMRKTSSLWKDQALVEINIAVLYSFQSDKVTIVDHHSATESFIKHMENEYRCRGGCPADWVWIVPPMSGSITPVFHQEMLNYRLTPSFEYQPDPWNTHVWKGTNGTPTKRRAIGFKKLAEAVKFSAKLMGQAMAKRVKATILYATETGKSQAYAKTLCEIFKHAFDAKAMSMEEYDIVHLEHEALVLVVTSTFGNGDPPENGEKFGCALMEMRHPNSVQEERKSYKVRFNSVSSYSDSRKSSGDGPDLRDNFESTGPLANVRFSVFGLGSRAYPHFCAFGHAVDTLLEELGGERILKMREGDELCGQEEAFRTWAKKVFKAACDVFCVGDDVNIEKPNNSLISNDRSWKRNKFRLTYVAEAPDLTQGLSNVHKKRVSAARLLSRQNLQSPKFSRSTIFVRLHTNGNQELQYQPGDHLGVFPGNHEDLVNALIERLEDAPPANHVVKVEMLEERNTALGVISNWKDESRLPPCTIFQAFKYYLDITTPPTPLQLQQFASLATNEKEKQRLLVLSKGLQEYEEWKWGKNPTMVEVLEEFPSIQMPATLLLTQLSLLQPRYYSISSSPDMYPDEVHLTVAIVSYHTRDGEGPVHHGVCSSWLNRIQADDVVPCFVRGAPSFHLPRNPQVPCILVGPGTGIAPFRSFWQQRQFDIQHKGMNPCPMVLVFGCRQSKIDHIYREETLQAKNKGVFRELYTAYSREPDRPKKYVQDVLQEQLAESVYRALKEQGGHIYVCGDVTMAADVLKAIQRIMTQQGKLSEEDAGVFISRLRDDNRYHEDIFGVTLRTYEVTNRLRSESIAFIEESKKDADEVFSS
Description: Inhibition of nNOS in Wistar rat cortical homogenates incubated for 30 mins

Rattus norvegicus [22] = assay: Antialzhemeric activity in Wistar rat model of scopolamine-induced cognition deficit assessed as effect on average distance from platform at 100 nM, icv dosed 60 mins prior to training trial by Morris water maze test; assay type: functional, organism-based
Rattus norvegicus [23] = assay: Antialzhemeric activity in icv dosed Wistar rat model of scopolamine-induced cognition deficit assessed as effect on time in target sector dosed 60 mins prior to training trial by Morris water maze test; assay type: functional, organism-based
[24] = Toxicity in ip dosed Wistar rat assessed as maximum tolerated dose measured during first 2 hrs then periodically for 48 hrs; assay type: organism-based; conditions: in vivo
Rattus norvegicus [25] = assay: Antialzhemeric activity in icv dosed Wistar rat model of scopolamine-induced cognition deficit assessed as effect on average distance from platform dosed 60 mins prior to training trial by Morris water maze test; assay type: functional, organism-based
[26] = Toxicity in Wistar rat assessed as induction of intermittent abnormal breathing pattern at 70 mg/kg, ip measured during first 2 hrs then periodically for 48 hrs; assay type: organism-based; conditions: in vivo
[27] = pampa, pH 7.4, 100 µM
Description: Effective permeability of the compound in PBS buffer at pH 7.4 at 100 uM after 3 to 6 hrs by PAMPA

[28] = Toxicity in Wistar rat assessed as induction of intermittent tremors and prostration at 70 mg/kg, ip measured during first 2 hrs then periodically for 48 hrs; assay type: organism-based; conditions: in vivo

SMILES: Cl.Cl.N[C@@H](Cc1c[nH]c2ccccc12)C(=O)NCCCCCCNc1c2c(nc3cc(Cl)ccc13)CCCC2
- Activity (Rattus norvegicus [1]): Active
- Activity [2]: Toxic
- Activity (Rattus norvegicus [3]): Active
- Activity (Rattus norvegicus [4]): Active
- Activity [5]: Non-Toxic
- Activity [6]: Non-Toxic
- Activity (Rattus norvegicus [7]): Dose-dependent effect
- Activity [8]: Non-Toxic
- Activity [9]: Non-Toxic
- Kd (Acetylcholinesterase [10]): 4.82 µM
- Activity [11]: Non-Toxic
- Activity (Rattus norvegicus [12]): Dose-dependent effect
- IC50 (Cholinesterase): 0.0091 µM
- IC50 (Acetylcholinesterase [13]): 0.0063 µM
- Activity (Rattus norvegicus [14]): Active
- Activity (Rattus norvegicus [15]): Active
- Activity [16]: Toxic
- Activity [17]: Toxic
- Activity (Rattus norvegicus [18]): Active
- Activity [19]: Non-Toxic
- IC50 (CHO-K1): 21 µM
- IC50 (HepG2): 4.9 µM
- Activity (Rattus norvegicus [20]): inactive
- Activity [21]: Non-Toxic
- IC50 (Nitric oxide synthase 1): 26 µM
- Activity (Rattus norvegicus [22]): Active
- Activity (Rattus norvegicus [23]): Dose-dependent effect
- MTD at 48 h [24]: 70 mg/kg
- Activity (Rattus norvegicus [25]): Dose-dependent effect
- Activity [26]: Toxic
- permeability [27]: Permeable
- Activity [28]: Toxic
